Broadly, the GI50 is the concentration giving 50% growth inhibition.

Molecules are shown by their SMILES.

This is an account of results in patent US10350210B2, “EGFR and ALK dual inhibitor” (PRECEDO PHARMACEUTICALS CO., LTD, priority 2015, dated 2019).

Test [1] concerns NCI-H3122. The experiment in a line: Effect on cell cycle (PI staining, flow cytometer), NCI-H3122. The format is cell-based, human. Conditions: NCI-H3122 (ALK gene), 24 hours. An excerpt:
In order to study which growth phase the cell was halted after administration of the drugs, five cell lines including non-small cell lung cancer cell line A549 (expressing wild-type EGFR gene), non-small cell lung cancer cell line H1975 (expressing EGFR L858R/T790M double mutant gene), non-small cell Lung cancer cell line PC-9 (expressing EGFR delE746_A750 mutant gene), non-small cell lung cancer cell line H3255 (expressing EGFR L858R mutant gene) and non-small cell lung cancer cell NCI-H3122 (expressing ALK gene) were tested for effect of Compound 1 on cell cycle distribution. Two cell lines including non-small cell lung cancer cell NCI-H3122 (expressing ALK gene) and non-small cell lung cancer cell H1975 (expressing EGFR L858R/T790M double mutant gene) were tested for effect of Compound 10 on cell cycle distribution. […]
In general terms: Flow cytometry measures light scatter and fluorescence of single cells or particles in a stream.

Another test concerns BaF3-FL-EGFR-Del19. Briefly: Cell growth (Cell Titer-Glo viability), BaF3-FL-EGFR-Del19. The note with it: Mus musculus; BaF3-FL-EGFR-Del19 (EGFR delE746_A750 mutant kinase), 72 hrs. Format: cell-based. In outline:
(§1)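 Human kinase sequences were PCR-amplified, fused to an N-terminal TEL fragment, and stably introduced into murine BaF3 by retrovirus. IL-3 was then removed to make growth kinase-dependent. Compound effects on these cells and on EGFR-mutant HCC827 and NCI-H3255 were scored by CellTiter-Glo luminescence.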
On the technique in general: ATP-based viability assays read luminescence as a measure of living cells.

A further test deals with BaF3-ALK-F1174L. Briefly: Cell growth (Cell Titer-Glo viability), BaF3-ALK-F1174L. The format is cell-based. Conditions: Mus musculus; BaF3-ALK-F1174L (mutant ALK F1174L kinase), 72 hrs. In outline:
as §1

The subject of test [2] is NCI-H3122. Briefly: Growth of cancer cells (Cell Titer-Glo viability), NCI-H3122. The format is cell-based. Conditions: Homo sapiens; NCI-H3122 (expressing ALK gene), 72 hrs; read-out: GI50.

Consider `C=CC(=O)Nc1cc(Nc2ncc(Cl)c(Nc3ccccc3S(=O)(=O)C(C)C)n2)c(OC)cc1N1CCN(CC)CC1` [Compound 1, N-(5-(5-chloro-4-(2-(isopropylsulfonyl)phenylamino)pyrimidin-2-ylamino)-2-(4-ethylpiperazin-1-yl)-4-methoxyphenyl)acrylamide], for which the “effect on cell cycle distribution” value with NCI-H3122 [1] is recorded as “halt the cells in G0-G1 phase”. This compound also returned a GI50 in the test on BaF3-FL-EGFR-Del19 of less than 0.3 nM.

As to `C=CC(=O)Nc1cc(Nc2ncc(Cl)c(Nc3ccccc3S(=O)(=O)C(C)C)n2)c(OC)cc1N1CCCN(C)CC1` [Compound 10, N-(5-(5-chloro-4-(2-(isopropylsulfonyl)phenylamino)pyrimidin-2-ylamino)-4-methoxy-2-(4-methyl-1,4-homopiperazin-1-yl)phenyl)acrylamide], the “effect on cell cycle distribution” value in the test on NCI-H3122 [1] is given as “halt the cells in G0-G1 phase”. Besides, the GI50 is 1500 nM in the test with BaF3-ALK-F1174L and less than 0.3 nM in the test on NCI-H3122 [2].
